# Measured values: US8067424B2, “Selective inhibitors for cyclin-dependent kinases” (Emory University, priority 2007, dated 2011)
# Where two headings read alike, the source gives them in different places.
# Tests used:
# Format in all cases: biochemical
# IKKβ = target: T1, IKKβ (Homo sapiens, UniProt O14920); test: Kinase screen: IKKb assay
# T1 sequence (O14920 1-756): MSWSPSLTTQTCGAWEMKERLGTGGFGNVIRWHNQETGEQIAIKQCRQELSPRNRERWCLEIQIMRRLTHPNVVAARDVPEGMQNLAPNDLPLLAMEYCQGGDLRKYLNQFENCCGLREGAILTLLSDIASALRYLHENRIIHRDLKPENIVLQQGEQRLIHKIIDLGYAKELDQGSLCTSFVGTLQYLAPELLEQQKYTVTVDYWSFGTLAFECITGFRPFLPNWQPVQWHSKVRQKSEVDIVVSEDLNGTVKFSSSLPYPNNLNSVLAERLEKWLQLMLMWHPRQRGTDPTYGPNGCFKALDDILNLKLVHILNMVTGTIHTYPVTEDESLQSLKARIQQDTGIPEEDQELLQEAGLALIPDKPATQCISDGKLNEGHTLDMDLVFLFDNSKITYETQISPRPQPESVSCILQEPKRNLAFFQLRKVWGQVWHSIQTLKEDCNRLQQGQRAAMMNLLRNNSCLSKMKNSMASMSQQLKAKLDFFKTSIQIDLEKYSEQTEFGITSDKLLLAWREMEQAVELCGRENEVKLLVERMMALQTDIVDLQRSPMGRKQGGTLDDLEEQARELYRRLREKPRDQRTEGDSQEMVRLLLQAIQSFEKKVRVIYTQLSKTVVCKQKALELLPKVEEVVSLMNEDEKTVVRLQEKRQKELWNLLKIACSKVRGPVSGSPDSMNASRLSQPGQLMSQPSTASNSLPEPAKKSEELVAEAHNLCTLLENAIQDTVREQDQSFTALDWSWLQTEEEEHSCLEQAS
# Method: (§1) Generally, the same procedure was used for all assays. Since the total assay volume was 25.5 microliters, 0.5 microliters of inhibitors at 51× assay concentration were added to the plates before any other addition.
# (§2) The basic procedure was to add 0.5 microliters inhibitor/control in DMSO to plate. Fifteen microliters of enzyme/substrate/buffer mix were added and incubated for 5 min. Ten microliters MgATP at the relevant concentration were added and incubated for 30 min. The assay was stopped by adding 5 microliters of 3% orthophosphoric acid. The assay was transferred to a p81 filter plate and read in a scintillation counter of 30 sec/well. Note that this assay procedure was not followed for MKK1, which instead involved a two-step assay, and PKC alpha, which required the addition of lipid vesicles.
# IKKb assay: 5-20 mU of IKKb (diluted in 50 mM Tris (pH 7.5), 0.1 mM EGTA, 1 mg/ml BSA, 0.1%, b-Mercaptoethanol) was assayed against substrate peptide ([…]) (SEQ ID NO: 20) in a final volume of 25.5 μl containing 50 mM Tris (pH 7.5), 0.1 mM EGTA, 0.1%, b-Mercaptoethanol, 300 μM substrate peptide, 10 mM magnesium acetate and 0.005 mM [33P-g-ATP] (500-1000 cpm/pmole) and incubated for 30 mins at room temperature. Assays were stopped by addition of 5 µl of 0.5M (3%) orthophosphoric acid. Assays were harvested onto P81 Unifilter plates using a wash buffer of 50 mM orthophosphoric acid.
# ERK1 = ERK1 (Homo sapiens, UniProt P27361); test: Kinase screen: ERK1 assay
# Chain of ERK1 (P27361 whole entry, species assumed): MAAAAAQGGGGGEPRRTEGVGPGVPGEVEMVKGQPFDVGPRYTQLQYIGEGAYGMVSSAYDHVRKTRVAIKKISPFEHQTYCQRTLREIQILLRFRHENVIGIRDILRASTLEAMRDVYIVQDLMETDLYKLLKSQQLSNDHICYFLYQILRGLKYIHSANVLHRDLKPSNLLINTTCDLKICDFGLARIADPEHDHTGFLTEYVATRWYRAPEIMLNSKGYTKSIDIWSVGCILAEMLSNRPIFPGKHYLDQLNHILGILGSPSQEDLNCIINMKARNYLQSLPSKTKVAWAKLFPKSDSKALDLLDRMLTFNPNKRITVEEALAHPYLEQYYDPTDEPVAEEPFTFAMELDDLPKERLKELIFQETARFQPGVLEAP
# Method: as §1, §2
# ERK1 assay: 5-20 mU of ERK1 (diluted in 50 mM Tris (pH 7.5), 0.1 mM EGTA, 1 mg/ml BSA, 0.1%, b-Mercaptoethanol) was assayed against MBP in a final volume of 25.5 μl containing 50 mM Tris (pH 7.5), 0.1 mM EGTA, 0.1%, b-Mercaptoethanol, 0.33 mg/ml MBP, 10 mM magnesium acetate and 0.005 mM [33P-g-ATP] (500-1000 cpm/pmole) and incubated for 30 mins at room temperature. Assays were stopped by addition of 5 μl of 0.5M (3%) orthophosphoric acid. Assays were harvested onto P81 Unifilter plates using a wash buffer of 50 mM orthophosphoric acid.
# VEG-FR = test: Kinase screen: VEG-FR assay; settings: 10 micromolar compound
# Method: as §1, §2
# VEG-FR assay: VEG-FR (5-20 mU diluted in 50 mM Tris pH 7.5, 0.1 mM EGTA, 1 mg/ml BSA) was assayed against a substrate peptide ([…]) (SEQ ID NO: 35) in a final volume of 25.5 μl containing 50 mM Tris pH 7.5, 300 μM substrate peptide, 10 mM magnesium acetate and 0.02 mM [33P-g-ATP] (50-1000 cpm/pmole) and incubated for 30 min at room temperature. Assays were stopped by addition of 5 μl of 0.5 M (3%) orthophosphoric acid and then harvested onto P81 Unifilter plates with a wash buffer of 50 mM orthophosphoric acid.
# RSK2 = RSK2 (Homo sapiens, UniProt P51812); test: Kinase screen: MAPKAP-K1b/RSK2 assay
# Chain of RSK2 (P51812 whole entry, species assumed): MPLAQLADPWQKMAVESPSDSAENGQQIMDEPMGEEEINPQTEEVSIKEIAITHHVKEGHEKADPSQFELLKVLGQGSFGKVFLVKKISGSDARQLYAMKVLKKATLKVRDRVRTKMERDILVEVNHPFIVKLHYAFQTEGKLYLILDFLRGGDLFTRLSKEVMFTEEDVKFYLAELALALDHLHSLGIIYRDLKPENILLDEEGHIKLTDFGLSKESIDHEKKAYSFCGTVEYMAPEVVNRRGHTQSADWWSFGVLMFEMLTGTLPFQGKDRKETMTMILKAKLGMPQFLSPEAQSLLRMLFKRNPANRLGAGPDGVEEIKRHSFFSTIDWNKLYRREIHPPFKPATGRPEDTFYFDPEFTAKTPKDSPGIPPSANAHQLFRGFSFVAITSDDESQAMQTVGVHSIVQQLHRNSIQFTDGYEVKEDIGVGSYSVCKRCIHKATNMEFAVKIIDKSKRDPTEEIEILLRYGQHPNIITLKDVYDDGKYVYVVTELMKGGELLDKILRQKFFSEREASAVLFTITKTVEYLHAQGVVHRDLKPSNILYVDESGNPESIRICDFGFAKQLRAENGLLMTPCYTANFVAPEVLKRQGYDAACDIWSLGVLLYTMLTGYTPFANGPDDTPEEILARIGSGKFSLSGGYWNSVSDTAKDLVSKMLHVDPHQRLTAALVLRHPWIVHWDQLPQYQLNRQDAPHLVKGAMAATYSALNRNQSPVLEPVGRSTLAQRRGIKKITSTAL
# Method: as §1, §2
# MAPKAP-K1b/RSK2 assay: MAPKAP-K1b (5-20 mU diluted in 20 mM MOPS pH 7.5, 1 mM EDTA, 0.01% Brij35, 5% glycerol, 0.1% b-mercaptoethanol, 1 mg/ml BSA) was assayed against substrate peptide ([…]) (SEQ ID NO: 3) in a final volume of […] containing 50 mM Na-b-glycerophosphate (pH 7.5), 0.5 mM EDTA, 30 μM substrate peptide, 10 mM magnesium acetate and 0.05 mM [33P-g-ATP] (50-1000 cpm/pmole) and incubated for 30 min at room temperature. Assays were stopped by addition of 5 μl of 0.5 M (3%) orthophosphoric acid and then harvested onto P81 Unifilter plates with a wash buffer of 50 mM orthophosphoric acid.
# CSK = CSK (Homo sapiens, UniProt P41240); test: Kinase screen: CSK assay
# Chain of CSK (P41240 whole entry, species assumed): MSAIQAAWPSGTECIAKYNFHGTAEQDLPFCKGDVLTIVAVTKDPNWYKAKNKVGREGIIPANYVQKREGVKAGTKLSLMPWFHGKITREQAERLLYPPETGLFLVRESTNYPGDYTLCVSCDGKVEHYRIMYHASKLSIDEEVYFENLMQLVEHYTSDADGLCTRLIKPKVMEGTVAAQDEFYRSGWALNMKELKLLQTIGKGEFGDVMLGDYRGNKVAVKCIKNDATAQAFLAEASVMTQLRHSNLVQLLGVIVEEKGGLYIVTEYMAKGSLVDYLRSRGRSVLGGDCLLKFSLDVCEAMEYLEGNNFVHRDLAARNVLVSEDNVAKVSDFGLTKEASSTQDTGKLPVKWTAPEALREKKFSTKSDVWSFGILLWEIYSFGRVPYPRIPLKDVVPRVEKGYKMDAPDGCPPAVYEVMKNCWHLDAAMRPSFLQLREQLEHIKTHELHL
# Method: as §1, §2
# (500-1000 cpm/pmole) and incubated for 30 min at room temperature Assays were stopped by addition of 5 μl of 0.5 M (3%) orthophosphoric acid and then harvested onto P81 Unifilter plates with a wash buffer of 50 mM orthophosphoric acid.
# [1] = 10 micromolar compound, read-out: mean activity remaining (as a percentage of the original activity), IKKb
# [2] = 10 micromolar compound, read-out: mean activity remaining (as a percentage of the original activity), ERK1
# [3] = 10 micromolar compound, read-out: mean activity remaining (as a percentage of the original activity), RSK2
# [4] = 10 micromolar compound, read-out: mean activity remaining (as a percentage of the original activity), CSK
structure (smiles),measurement,setting,value
CC(C)c1cnn2c(NCc3ccccc3F)cc(NCCCCCN)nc12 [ICEC-0232],"mean activity remaining (as a percentage of the original activity), IKKb",IKKβ; 10 micromolar compound,84%
same,"mean activity remaining (as a percentage of the original activity), ERK1",ERK1; 10 micromolar compound,90%
same,"mean activity remaining (as a percentage of the original activity), VEG-FR",VEG-FR,105%
same,"mean activity remaining (as a percentage of the original activity), RSK2",RSK2; 10 micromolar compound,19%
same,"mean activity remaining (as a percentage of the original activity), CSK",CSK; 10 micromolar compound,78%
CC(C)c1cnn2c(NCc3ccccc3)cc(NCCCCCCCN)nc12 [BS-181],remaining activity at 10 µM,"IKKβ; IKKβ, 10 μM, read-out: Mean Remaining Enzyme Activity (%)",96%
same,remaining activity at 10 µM,"ERK1; ERK1, 10 μM, read-out: Mean Remaining Enzyme Activity (%)",108%
same,remaining activity at 10 µM,"RSK2; RSK2, 10 μM, read-out: Mean Remaining Enzyme Activity (%)",55%
same,remaining activity at 10 µM,"CSK; CSK, 10 μM, read-out: Mean Remaining Enzyme Activity (%)",89%
CC[C@H](CO)Nc1cc(NCc2ccccc2)n2ncc(C(C)C)c2n1 [ICEC0067],remaining activity at 10 µM,IKKβ; [1],84%
same,remaining activity at 10 µM,ERK1; [2],69%
same,"mean activity remaining (as a percentage of the original activity), VEG-FR",VEG-FR,99%
same,remaining activity at 10 µM,RSK2; [3],76%
same,remaining activity at 10 µM,CSK; [4],77%
C=C[C@H](CO)Nc1cc(NCc2ccccc2)n2ncc(C(C)C)c2n1 [ICEC0065],remaining activity at 10 µM,IKKβ; [1],81%
same,remaining activity at 10 µM,ERK1; [2],84%
same,"mean activity remaining (as a percentage of the original activity), VEG-FR",VEG-FR,101%
same,remaining activity at 10 µM,RSK2; [3],84%
same,remaining activity at 10 µM,CSK; [4],77%
"CC(C)c1cnn2c(NCc3ccccc3)cc(N[C@@H](CO)[C@H](O)CO)nc12 [ICEC0318, (3S)-3-(7-(Benzylamino)-3-isopropylpyrazolo[1,5-a]pyrimidin-5-ylamino)butane-1,2,4-triol]",remaining activity at 10 µM,IKKβ; [1],80%
same,remaining activity at 10 µM,ERK1; [2],42%
same,"mean activity remaining (as a percentage of the original activity), VEG-FR",VEG-FR,92%
same,remaining activity at 10 µM,RSK2; [3],90%
same,remaining activity at 10 µM,CSK; [4],77%
